The source made the active and inactive calls. The rule behind the calls is not given here.
Experiments:
[1] = system: HMEC-1; experiment: Induction of apoptosis in human HMEC-1 cells assessed as late apoptotic cells at IC50 incubated for 72 hrs by Annexin V-FITC/PI staining based flow cytometric analysis (reference value: 4.7 %); assay type: functional
[2] = system: K562; experiment: Cytotoxicity against human K562 cells assessed as cell growth inhibition measured after 72 hrs by MTT assay; assay type: functional, cell-based; details: K562, 72 h
[3] = system: HCT-116; experiment: Antiproliferative activity against human HCT-116 cells assessed as reduction in cell viability at IC50 measured after 72 hrs by trypan blue dye based assay relative to control; assay type: functional
[4] = system: HepG2; experiment: Cytotoxicity against human HepG2 cells assessed as cell growth inhibition measured after 72 hrs by MTT assay; assay type: functional, cell-based; details: HepG2, 72 h
[5] = system: MDA-MB-231; experiment: Cytotoxicity against human MDA-MB-231 cells assessed as cell growth inhibition measured after 72 hrs by MTT assay; assay type: functional, cell-based; details: MDA-MB-231, 72 h
[6] = system: HCT-116; experiment: Induction of apoptosis in human HCT-116 cells assessed as necrotic cells at IC50 incubated for 72 hrs by Annexin V-FITC/PI staining based flow cytometric analysis (reference value: 0.1 %); assay type: functional
[7] = system: HMEC-1; experiment: Induction of apoptosis in human HMEC-1 cells assessed as viable cells at IC50 incubated for 72 hrs by Annexin V-FITC/PI staining based flow cytometric analysis (reference value: 90.6 %); assay type: functional
[8] = system: HMEC-1; experiment: Induction of apoptosis in human HMEC-1 cells assessed as early apoptotic cells at IC50 incubated for 72 hrs by Annexin V-FITC/PI staining based flow cytometric analysis (reference value: 2.4 %); assay type: functional
[9] = system: K562; experiment: Antiproliferative activity against human K562 cells assessed as reduction in cell viability at IC50 measured after 72 hrs by trypan blue dye based assay relative to control; assay type: functional
[10] = system: SW-620; experiment: Cytotoxicity against human SW620 cells assessed as cell growth inhibition measured after 72 hrs by MTT assay; assay type: functional, cell-based; details: SW-620, 72 h
[11] = Cytotoxicity against human HMEC-1 cells assessed as cell growth inhibition measured after 72 hrs by MTT assay; assay type: toxicity, cell-based
[12] = system: HMEC-1; experiment: Induction of apoptosis in human HMEC-1 cells assessed as necrotic cells at IC50 incubated for 72 hrs by Annexin V-FITC/PI staining based flow cytometric analysis (reference value: 2.4 %); assay type: functional
[13] = Selectivity index, ratio of IC50 for cytotoxicity against human HMEC-1 cells to IC50 for cytotoxicity against human HepG2 cells; assay type: toxicity, cell-based; details: HMEC-1 cells and HepG2 cells, read-out: Ratio IC50
[14] = system: K562; experiment: Induction of apoptosis in human K562 cells assessed as viable cells at IC50 incubated for 72 hrs by Annexin V-FITC/PI staining based flow cytometric analysis (reference value: 89 %); assay type: functional
[15] = system: A549; experiment: Cytotoxicity against human A549 cells assessed as cell growth inhibition measured after 72 hrs by MTT assay; assay type: functional, cell-based; details: A549, 72 h
[16] = system: K562; experiment: Induction of apoptosis in human K562 cells assessed as late apoptotic cells at IC50 incubated for 72 hrs by Annexin V-FITC/PI staining based flow cytometric analysis (reference value: […]); assay type: functional
[17] = system: HCT-116; experiment: Induction of apoptosis in human HCT-116 cells assessed as early apoptotic cells at IC50 incubated for 72 hrs by Annexin V-FITC/PI staining based flow cytometric analysis (reference value: 7.8 %); assay type: functional
[18] = Selectivity index, ratio of IC50 for cytotoxicity against human HMEC-1 cells to IC50 for cytotoxicity against human MDA-MB-231 cells; assay type: toxicity, cell-based; details: HMEC-1 cells and MDA-MB-231 cells, read-out: Ratio IC50
[19] = Selectivity index, ratio of IC50 for cytotoxicity against human HMEC-1 cells to IC50 for cytotoxicity against human K562 cells; assay type: toxicity, cell-based; details: HMEC-1 cells and K562 cells, read-out: Ratio IC50
[20] = system: HCT-116; experiment: Induction of apoptosis in human HCT-116 cells assessed as viable cells at IC50 incubated for 72 hrs by Annexin V-FITC/PI staining based flow cytometric analysis (reference value: 90.5 %); assay type: functional
[21] = target: T1, 5-hydroxytryptamine receptor 1A (Rattus norvegicus) (UniProt P19327); experiment: Agonist activity at Sprague-Dawley rat hippocampal membrane 5-HT1A receptor assessed as stimulation of [35S]GTPgammaS binding by measuring maximal efficacy measured after 90 mins by scintillation counter analysis relative to control; assay type: functional, cell membranes; details: Hippocampus, filed as agonist
T1 sequence (whole entry): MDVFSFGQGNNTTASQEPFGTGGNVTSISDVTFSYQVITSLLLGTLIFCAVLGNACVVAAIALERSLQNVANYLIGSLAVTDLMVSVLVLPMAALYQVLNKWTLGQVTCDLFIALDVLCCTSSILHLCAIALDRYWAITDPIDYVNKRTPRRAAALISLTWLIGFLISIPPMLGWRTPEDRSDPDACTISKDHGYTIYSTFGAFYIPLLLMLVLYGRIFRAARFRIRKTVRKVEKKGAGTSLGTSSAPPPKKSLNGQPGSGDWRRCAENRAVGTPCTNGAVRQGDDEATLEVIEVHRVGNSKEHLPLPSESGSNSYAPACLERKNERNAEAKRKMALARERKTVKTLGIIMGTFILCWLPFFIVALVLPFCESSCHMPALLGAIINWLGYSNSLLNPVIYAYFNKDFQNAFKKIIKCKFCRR

[22] = Selectivity index, ratio of IC50 for cytotoxicity against human HMEC-1 cells to IC50 for cytotoxicity against human PC-3 cells; assay type: toxicity, cell-based; details: HMEC-1 cells and PC-3 cells, read-out: Ratio IC50
[23] = Selectivity index, ratio of IC50 for cytotoxicity against human HMEC-1 cells to IC50 for cytotoxicity against human SW480 cells
[24] = system: K562; experiment: Induction of apoptosis in human K562 cells assessed as necrotic cells at IC50 incubated for 72 hrs by Annexin V-FITC/PI staining based flow cytometric analysis (reference value: 7.1 %); assay type: functional
[25] = system: SW480; experiment: Cytotoxicity against human SW480 cells assessed as cell growth inhibition measured after 72 hrs by MTT assay; assay type: functional, cell-based; details: SW480, 72 h
[26] = target: T2, 5-hydroxytryptamine receptor 1A (Rattus norvegicus, UniProt P19327); experiment: Agonist activity at Sprague-Dawley rat hippocampal membrane 5-HT1A receptor assessed as stimulation of [35S]GTPgammaS binding measured after 90 mins by scintillation counter analysis; assay type: functional, cell membranes, Hippocampus
T2 sequence (P19327 whole entry): T1 sequence (whole entry)

[27] = species: Rattus norvegicus; experiment: Displacement of [3H]-QNB from Sprague-Dawley rat Muscarinic acetylcholine receptor assessed as inhibition constant measured after 45 mins by competitive binding assay
[28] = system: HCT-116; experiment: Cytotoxicity against human HCT-116 cells assessed as cell growth inhibition measured after 72 hrs by MTT assay; assay type: functional, cell-based; details: HCT-116, 72 h
[29] = system: HCT-116; experiment: Induction of apoptosis in human HCT-116 cells assessed as late apoptotic cells at IC50 incubated for 72 hrs by Annexin V-FITC/PI staining based flow cytometric analysis (reference value: 1.6 %); assay type: functional
[30] = system: HCT-116; experiment: Antiproliferative activity against human HCT-116 cells assessed as reduction in cell number at IC50 measured after 72 hrs by trypan blue dye based assay relative to control; assay type: functional; parameters: scale not given: the % may be the effect or the level left
[31] = system: K562; experiment: Induction of apoptosis in human K562 cells assessed as early apoptotic cells at IC50 incubated for 72 hrs by Annexin V-FITC/PI staining based flow cytometric analysis (reference value: 1.3 %); assay type: functional

SMILES	Activity [1]	IC50 [2]	Activity [3]	IC50 [4]	IC50 [5]	Activity [6]	Activity [7]	Activity [8]	Activity [9]	IC50 [10]	IC50 at 72 h [11]	Activity [12]	selectivity ratio [13]	Activity [14]	IC50 [15]	Activity [16]	Activity [17]	selectivity ratio [18]	selectivity ratio [19]	Activity [20]	further results
COc1ccccc1N1CCN(CCCCN2C(=O)C3C(C2=O)C2(C)C(=O)C3(C)C(c3ccccc3)=C2c2ccccc2)CC1 (configuration not stated)	1.8%	6.76 µM	34%	15.7 µM	29.3 µM	0.1%	94.3%	2.2%	44%	4.8 µM	30.2 µM	1.7%	1.93	22.4%	16.2 µM	51.3%	18.4%	1.03	4.47	79.2%	Emax [21]: 122%; selectivity ratio [22]: 2.07; Ratio IC50 [23]: 4.08; Activity [24]: 20.4%; IC50 [25]: 7.41 µM; EC50 [26]: 0.006 µM; Activity [27]: inactive; IC50 [28]: 8.89 µM; Activity [29]: 2.3%; Activity [30]: 44%; Activity [31]: 5.9%
CC12C(=O)C(C)(C(c3ccccc3)=C1c1ccccc1)C1C(=O)N(CCCCN3CCN(c4ccccc4F)CC3)C(=O)C12 (configuration not stated)	7.3%	5.65 µM	35%	26.8 µM	56.5 µM	0.2%	85.8%	1.9%	30%	22.4 µM	17.7 µM	5%	0.66	56.9%	30.7 µM	27.3%	23%	0.31	3.13	74.9%	Emax [21]: 152%; selectivity ratio [22]: 1.92; Ratio IC50 [23]: 2.28; Activity [24]: 10.6%; IC50 [25]: 7.75 µM; EC50 [26]: 1.7 µM; Activity [27]: inactive; IC50 [28]: 4.48 µM; Activity [29]: 1.9%; Activity [30]: 35%; Activity [31]: 5.2%
